According to article PMC8041318, “Folic Acid–Peptide Conjugates Combine Selective Cancer Cell Internalization with Thymidylate Synthase Dimer Interface Targeting” (Journal of Medicinal Chemistry, 2021):

Experiments:
IGROV-1 cells = test: Cell growth inhibition, crystal violet dye assay; type: cell-based, human
Excerpt: (§1) SQ was defined as the net growth inhibitory effect of the analogue combination divided by the sum of the net individual analogue effects on growth inhibition. A quotient of >1.1 indicates a synergistic effect, that between 0.9 and 1.1 indicates an additive effect, while a quotient of <0.9 indicates an antagonistic effect.

A2780 cells = test: Cell growth inhibition, crystal violet dye assay (combination study); type: cell-based, human
Excerpt: as §1

DHFR = conditions: IGROV-1, 5 μM, 48 h
HSP90AA1 = conditions: IGROV-1, 5 μM, 48 h
in vitro = conditions: human, cytosol
Description: Given the relevance of the concentration data, we checked whether the 30 min incubation time could represent a drawback in our analytical approach.
C13* human ovarian cancer cell lines (highly cisplatin-resistant) were prepared as reported for IGROV1 (LC-MS compartmentalization experiment).[65] […] After each interval, the cells (about 2 million per Petri plate) were washed three times with acid phosphate-buffered saline (PBS, pH 5.0), scraped, and counted. […] Each cytosol aliquot was diluted to a final volume of 500 μL with a 1:1 mixture of H2O with 0.1% HCOOH and ACN with 1 μM 1,4-dithiothreitol (DTT) as an antioxidant agent.
Sample analysis was carried out on an UltiMate 3000 UHPLC (Thermo Fisher Scientific) coupled to an Orbitrap Q-Exactive mass spectrometer. We used an Agilent Poroshell C18 column (120 Å, 100 × 2.1 mm^2, 2.7 μm ps) to separate the analytes, thermostated at 30 °C, with an injection volume of 20 μL per sample. […] C13* cells were assumed to have a spherical volume of 2 pL, whose 60% represented by cytoplasm. Thus, interpolated values were multiplied by the final dilution value (500 μL) and divided by the number of cells for each sample multiplied by a single-cell cytosol volume (1.2 pL).

RFC = conditions: physiological conditions; read-out: Km toward RFC; cited from earlier work
[1] = test system: R1-11-FR2 and R5-FR12 HeLa cells; design: method as in PMID 19074442; conditions: tritiated FA; cited from earlier work

SMILES: Cc1nc2ccc(CN(C)c3ccc(C(=O)N[C@@H](CCC(=O)O)C(=O)O)s3)cc2c(=O)[nH]1 [raltitrexed]
- % Growth inhibition, single compound (IGROV-1 cells; RTX 10nM): 34.5%
- % Growth inhibition, single compound (IGROV-1 cells; RTX 20nM): 29.5%
- % Growth inhibition, single compound (A2780 cells; RTX 10nM): 56.8%
- % Growth inhibition, single compound (A2780 cells; RTX 20nM): 59.9%

SMILES: [NH2][Pt]([NH2])([Cl])[Cl] [cDDP, cisplatin]
- % Growth inhibition, single compound (IGROV-1 cells; cDDP 1µM): 40.3%
- % Growth inhibition, single compound (IGROV-1 cells; cDDP 2µM): 44.9%
- % Growth inhibition, single compound (IGROV-1 cells; cDDP 5µM): 48.8%
- % Growth inhibition, single compound (A2780 cells; cDDP 1µM): 37.3%
- % Growth inhibition, single compound (A2780 cells; cDDP 2µM): 49.1%
- % Growth inhibition, single compound (A2780 cells; cDDP 5µM): 78.6%

SMILES: O=c1[nH]cc(F)c(=O)[nH]1 [5-FU, 5-fluorouracil]
- % Growth inhibition, single compound (IGROV-1 cells; 5FU 10µM): 28.4%
- % Growth inhibition, single compound (IGROV-1 cells; 5FU 15µM): 36.5%
- hTS protein levels (in words) (hTS; IGROV-1, Figures SI-10 and SI-11): slightly increased
- % Growth inhibition, single compound (A2780 cells; 5FU 10µM): 45.3%
- % Growth inhibition, single compound (A2780 cells; 5FU 15µM): 34.5%

SMILES: CC(C)C[C@H](NC(=O)CC[C@H](NC(=O)c1ccc(NCc2cnc3nc(N)nc(O)c3n2)cc1)C(=O)O)C(=O)N[C@@H](CO)C(=O)N[C@@H](CS)C(=O)N[C@H](CCC(N)=O)C(=O)N[C@@H](CC(C)C)C(=O)N[C@@H](Cc1ccc(O)cc1)C(=O)N[C@@H](CCC(N)=O)C(=O)N[C@@H](CCCNC(=N)N)C(=O)O [FA–[DGln^4]LR]
- DHFR protein level with respect to control (in words) (DHFR): clear decrease
- reduction of HSP90AA1 level (HSP90AA1): 10%

SMILES: Nc1nc2[nH]cc(CCc3ccc(C(=O)N[C@@H](CCC(=O)O)C(=O)O)cc3)c2c(=O)[nH]1 [PMX, pemetrexed]
- upregulation of hTS protein levels (hTS; IGROV-1, 5 μM, 48 h): 2.5 fold

SMILES: CC(C)C[C@H](NC(=O)CC[C@H](NC(=O)c1ccc(NCc2cnc3nc(N)[nH]c(=O)c3n2)cc1)C(=O)O)C(=O)N[C@@H](CO)C(=O)N[C@@H](CS)C(=O)N[C@@H](CCC(N)=O)C(=O)N[C@@H](CC(C)C)C(=O)N[C@@H](Cc1ccc(O)cc1)C(=O)N[C@@H](CCC(N)=O)C(=O)N[C@@H](CCCNC(=N)N)C(=O)O [FA–LR]
- half-life (in vitro): 3.33 h

SMILES: Nc1nc2ncc(CNc3ccc(C(=O)N[C@@H](CCC(=O)O)C(=O)O)cc3)nc2c(=O)[nH]1 [FA, folic acid]
- Km (RFC): > 100 µM
- ratio of concentrations between vesicular and cytosolic fractions [1]: 10.8
